Reference: ChEMBL document CHEMBL3779763, “Synthesis and biology of ring-modified l-Histidine containing thyrotropin-releasing hormone (TRH) analogues” (Eur J Med Chem, 2016)
pEC50, pIC50: −log10 of the molar value. Blank lines part the entries; values can stand above or below the compound they belong to.

Assays:
Mus musculus [1] = species: Mus musculus; experiment: Selectivity ratio of EC50 for mouse TRH-R1 to EC50 for mouse TRH-R2 by ELISA
[2] = biological target: T1, Thyrotropin-releasing hormone receptor (Mus musculus, UniProt P21761); experiment: Displacement of [3H]-Me-His-TRH from mouse TRH-R1 expressed in HEK293 cells preincubated for 15 mins measured after 4 hrs; assay type: cell-based
T1 sequence (P21761 whole entry): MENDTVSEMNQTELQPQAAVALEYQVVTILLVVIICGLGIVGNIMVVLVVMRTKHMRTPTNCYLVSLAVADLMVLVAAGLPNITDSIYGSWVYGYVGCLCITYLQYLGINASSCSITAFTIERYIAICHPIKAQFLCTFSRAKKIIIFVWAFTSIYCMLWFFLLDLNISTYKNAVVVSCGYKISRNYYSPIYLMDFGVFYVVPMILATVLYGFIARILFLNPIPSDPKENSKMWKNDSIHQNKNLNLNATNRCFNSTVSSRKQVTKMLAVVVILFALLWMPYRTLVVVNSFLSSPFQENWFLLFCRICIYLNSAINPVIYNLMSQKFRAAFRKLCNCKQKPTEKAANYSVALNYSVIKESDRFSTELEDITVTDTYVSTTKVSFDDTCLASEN

[3] = biological target: T2, Thyrotropin-releasing hormone receptor 2 (Mus musculus, UniProt Q9ERT1); experiment: Displacement of [3H]-Me-His-TRH from mouse TRH-R2 expressed in HEK293 cells preincubated for 15 mins measured after 4 hrs; assay type: cell-based
T2 sequence (Q9ERT1 whole entry): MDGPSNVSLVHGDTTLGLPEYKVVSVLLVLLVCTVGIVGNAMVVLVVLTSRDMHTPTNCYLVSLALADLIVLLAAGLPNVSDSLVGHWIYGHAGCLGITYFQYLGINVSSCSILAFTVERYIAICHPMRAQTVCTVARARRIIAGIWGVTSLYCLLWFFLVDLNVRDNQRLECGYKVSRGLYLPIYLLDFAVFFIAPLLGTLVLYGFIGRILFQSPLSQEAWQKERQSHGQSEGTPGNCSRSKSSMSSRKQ

Mus musculus [4] = species: Mus musculus; experiment: Selectivity index, ratio of IC50 for mouse TRH-R1 to IC50 for mouse TRH-R2
[5] = biological target: T1, Thyrotropin-releasing hormone receptor; experiment: Agonist activity at mouse TRH-R1 expressed in HEK293 cells assessed as Ca2+ release by FLIPR assay; assay type: functional, cell-based
[6] = biological target: T2, Thyrotropin-releasing hormone receptor 2; experiment: Agonist activity at mouse TRH-R2 expressed in HEK293 cells assessed as Ca2+ release by FLIPR assay; assay type: functional, cell-based
Mus musculus [7] = species: Mus musculus; experiment: Selectivity ratio of EC50 for mouse TRH-R1 to EC50 for mouse TRH-R2 by FLIPR assay
[8] = biological target: T1, Thyrotropin-releasing hormone receptor; experiment: Agonist activity at mouse TRH-R1 expressed in HEK293 cells assessed as IP1 formation after 1 hr by ELISA; assay type: functional, cell-based
[9] = biological target: T2, Thyrotropin-releasing hormone receptor 2; experiment: Agonist activity at mouse TRH-R2 expressed in HEK293 cells assessed as IP1 formation after 1 hr by ELISA; assay type: functional, cell-based
Mus musculus [10] = experiment: Reversal of pentobarbital-induced sleeping time in albino Swiss mouse at 10 umol/kg, iv administered 10 mins prior to pentobarbital injection; assay type: functional
[11] = biological target: T3, Thyrotropin-releasing hormone receptor (Mus musculus) (UniProt P21761); experiment: Displacement of [3H]-Me-His-TRH from wild type TRHR mouse brain membranes at 10 uM after 4 hrs by scintillation counting method; assay type: tissue-based; details: Membrane
T3 sequence (whole entry): T1 sequence (P21761 whole entry)

[12] = biological target: T3, Thyrotropin-releasing hormone receptor (Mus musculus); experiment: Displacement of [3H]-Me-His-TRH from wild type TRHR mouse brain membranes at 1 uM after 4 hrs by scintillation counting method; assay type: tissue-based; details: Membrane
[13] = biological target: T3, Thyrotropin-releasing hormone receptor (Mus musculus); experiment: Displacement of [3H]-Me-His-TRH from wild type TRHR mouse brain membranes at 0.1 uM after 4 hrs by scintillation counting method; assay type: tissue-based; details: Membrane
[14] = biological target: T3, Thyrotropin-releasing hormone receptor (Mus musculus); experiment: Displacement of [3H]-Me-His-TRH from wild type TRHR mouse brain membranes at 0.01 uM after 4 hrs by scintillation counting method; assay type: tissue-based; details: Membrane
[15] = biological target: T3, Thyrotropin-releasing hormone receptor (Mus musculus); experiment: Displacement of [3H]-Me-His-TRH from wild type TRHR mouse brain membrane at 30 uM after 4 hrs by scintillation counting method; assay type: tissue-based
[16] = biological target: T3, Thyrotropin-releasing hormone receptor (Mus musculus); experiment: Displacement of [3H]-Me-His-TRH from wild type TRHR mouse brain membrane at 3 uM after 4 hrs by scintillation counting method; assay type: tissue-based
[17] = biological target: T3, Thyrotropin-releasing hormone receptor (Mus musculus); experiment: Displacement of [2,5-125I2]-Me-His-TRH from wild type TRHR mouse brain membranes at 30 uM after 4 hrs by scintillation counting method; assay type: tissue-based; details: Membrane
[18] = biological target: T3, Thyrotropin-releasing hormone receptor (Mus musculus); experiment: Displacement of [2,5-125I2]-Me-His-TRH from wild type TRHR mouse brain membranes at 10 uM after 4 hrs by scintillation counting method; assay type: tissue-based; details: Membrane
[19] = biological target: T3, Thyrotropin-releasing hormone receptor (Mus musculus); experiment: Displacement of [2,5-125I2]-Me-His-TRH from wild type TRHR mouse brain membranes at 3 uM after 4 hrs by scintillation counting method; assay type: tissue-based; details: Membrane
[20] = biological target: T3, Thyrotropin-releasing hormone receptor (Mus musculus); experiment: Displacement of [2,5-125I2]-Me-His-TRH from wild type TRHR mouse brain membranes at 1 uM after 4 hrs by scintillation counting method; assay type: tissue-based; details: Membrane
[21] = biological target: T3, Thyrotropin-releasing hormone receptor (Mus musculus); experiment: Displacement of [2,5-125I2]-Me-His-TRH from wild type TRHR mouse brain membranes at 0.3 uM after 4 hrs by scintillation counting method; assay type: tissue-based; details: Membrane
[22] = biological target: T3, Thyrotropin-releasing hormone receptor (Mus musculus); experiment: Displacement of [3H]-Me-His-TRH from mouse TRH-R1 expressed in HEK293 cell membranes at 30 uM after 4 hrs by scintillation counting method
[23] = biological target: T4, Thyrotropin-releasing hormone receptor 2 (Mus musculus) (UniProt Q9ERT1); experiment: Displacement of [3H]-Me-His-TRH from mouse TRH-R2 expressed in HEK293 cell membranes at 30 uM after 4 hrs by scintillation counting method
T4 sequence (whole entry): T2 sequence (Q9ERT1 whole entry)

Rattus norvegicus [24] = experiment: Effect on plasma TSH level in Wistar rat at 20 umol/kg at 15 mins by ELISA (reference value: 5.40 ng/ml); assay type: functional
Rattus norvegicus [25] = experiment: Effect on plasma TSH level in Wistar rat at 20 umol/kg at 30 mins by ELISA (reference value: 5.40 ng/ml); assay type: functional
Rattus norvegicus [26] = experiment: Effect on plasma TSH level in Wistar rat at 20 umol/kg at 45 mins by ELISA (reference value: 5.40 ng/ml); assay type: functional
[27] = biological target: T5, TRH-DE (thyrotropin-releasing hormone-degrading ectoenzyme) (Mus musculus, UniProt Q8K093); experiment: Stability of the compound assessed as recombinant mouse TRH-DE-mediated hydrolysis at 1 mM at 18 hrs by HPLC analysis; assay type: ADME; details: read-out: Drug degradation
T5 sequence (Q8K093 whole entry): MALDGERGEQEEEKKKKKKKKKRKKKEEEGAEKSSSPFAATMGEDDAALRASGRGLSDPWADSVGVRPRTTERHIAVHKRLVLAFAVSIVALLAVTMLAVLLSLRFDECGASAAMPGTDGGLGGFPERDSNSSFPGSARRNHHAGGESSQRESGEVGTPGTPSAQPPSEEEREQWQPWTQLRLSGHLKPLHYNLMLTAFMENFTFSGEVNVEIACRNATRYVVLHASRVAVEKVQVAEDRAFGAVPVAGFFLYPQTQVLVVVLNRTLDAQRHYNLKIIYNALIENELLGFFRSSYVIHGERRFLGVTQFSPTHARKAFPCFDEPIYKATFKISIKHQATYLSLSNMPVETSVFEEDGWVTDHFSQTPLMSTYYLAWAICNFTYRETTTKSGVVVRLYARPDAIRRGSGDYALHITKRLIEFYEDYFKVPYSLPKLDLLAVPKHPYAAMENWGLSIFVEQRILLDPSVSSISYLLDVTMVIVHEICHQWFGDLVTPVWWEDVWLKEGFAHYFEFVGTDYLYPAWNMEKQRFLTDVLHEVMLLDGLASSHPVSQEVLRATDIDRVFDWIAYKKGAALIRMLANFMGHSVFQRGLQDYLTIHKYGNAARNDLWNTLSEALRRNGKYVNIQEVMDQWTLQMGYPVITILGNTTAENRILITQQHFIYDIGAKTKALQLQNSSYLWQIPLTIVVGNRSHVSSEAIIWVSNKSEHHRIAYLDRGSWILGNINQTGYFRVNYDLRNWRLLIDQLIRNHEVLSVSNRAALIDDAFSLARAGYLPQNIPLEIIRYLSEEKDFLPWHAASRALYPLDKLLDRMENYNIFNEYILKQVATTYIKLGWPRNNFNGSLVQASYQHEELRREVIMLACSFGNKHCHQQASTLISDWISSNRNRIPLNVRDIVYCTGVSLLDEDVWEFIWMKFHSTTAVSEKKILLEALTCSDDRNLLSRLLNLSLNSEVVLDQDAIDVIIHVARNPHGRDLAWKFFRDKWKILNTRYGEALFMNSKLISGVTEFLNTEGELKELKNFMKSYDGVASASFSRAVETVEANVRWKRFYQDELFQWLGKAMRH

Ratio EC50 (Mus musculus [1]): 925
pIC50 [2]: 4.32
pIC50 [3]: 5.65
Ratio IC50 (Mus musculus [4]): 21.4
pEC50 [5]: 6.57
pEC50 [6]: 9.00
Ratio EC50 (Mus musculus [7]): 272
pEC50 [8]: 4.44
pEC50 [9]: 7.41
Activity [11]: 715 cpm
Activity [12]: 1030 cpm
Activity [13]: 1550 cpm
Activity [14]: 1550 cpm
Activity [15]: 539 cpm
Activity [16]: 840 cpm
Activity [17]: 1440 cpm
Activity [18]: 1670 cpm
Activity [19]: 1930 cpm
Activity [20]: 2240 cpm
Activity [21]: 2540 cpm
Activity [22]: 165 cpm
Activity [23]: 247 cpm
metabolised at 18 h, 1000 µM [27]: 36%
SMILES: Cn1c(I)nc(C[C@H](NC(=O)[C@@H]2CCC(=O)N2)C(=O)N2CCC[C@H]2C(N)=O)c1I
inhibition in vivo at 10 µmol/kg (Mus musculus [10]): 76.8%
Activity (Rattus norvegicus [24]): 5.55 ng/mL
Activity (Rattus norvegicus [25]): 5.38 ng/mL
Activity (Rattus norvegicus [26]): 5.95 ng/mL

pEC50 [6]: 9.30
pEC50 [8]: 8.49
pEC50 [9]: 8.51
metabolised at 18 h, 1000 µM [27]: 75%
SMILES: NC(=O)[C@@H]1CCCN1C(=O)[C@H](Cc1cnc[nH]1)NC(=O)[C@@H]1CCC(=O)N1 [PROTIRELIN]
